# In ChEMBL document CHEMBL1932924, “Design, synthesis, and biological evaluation of 4-phenylpyrrole derivatives as novel androgen receptor antagonists” (Bioorg Med Chem, 2012):
# Biological target: T1, Androgen receptor (Homo sapiens, UniProt P10275)
# T1 sequence (P10275 whole entry): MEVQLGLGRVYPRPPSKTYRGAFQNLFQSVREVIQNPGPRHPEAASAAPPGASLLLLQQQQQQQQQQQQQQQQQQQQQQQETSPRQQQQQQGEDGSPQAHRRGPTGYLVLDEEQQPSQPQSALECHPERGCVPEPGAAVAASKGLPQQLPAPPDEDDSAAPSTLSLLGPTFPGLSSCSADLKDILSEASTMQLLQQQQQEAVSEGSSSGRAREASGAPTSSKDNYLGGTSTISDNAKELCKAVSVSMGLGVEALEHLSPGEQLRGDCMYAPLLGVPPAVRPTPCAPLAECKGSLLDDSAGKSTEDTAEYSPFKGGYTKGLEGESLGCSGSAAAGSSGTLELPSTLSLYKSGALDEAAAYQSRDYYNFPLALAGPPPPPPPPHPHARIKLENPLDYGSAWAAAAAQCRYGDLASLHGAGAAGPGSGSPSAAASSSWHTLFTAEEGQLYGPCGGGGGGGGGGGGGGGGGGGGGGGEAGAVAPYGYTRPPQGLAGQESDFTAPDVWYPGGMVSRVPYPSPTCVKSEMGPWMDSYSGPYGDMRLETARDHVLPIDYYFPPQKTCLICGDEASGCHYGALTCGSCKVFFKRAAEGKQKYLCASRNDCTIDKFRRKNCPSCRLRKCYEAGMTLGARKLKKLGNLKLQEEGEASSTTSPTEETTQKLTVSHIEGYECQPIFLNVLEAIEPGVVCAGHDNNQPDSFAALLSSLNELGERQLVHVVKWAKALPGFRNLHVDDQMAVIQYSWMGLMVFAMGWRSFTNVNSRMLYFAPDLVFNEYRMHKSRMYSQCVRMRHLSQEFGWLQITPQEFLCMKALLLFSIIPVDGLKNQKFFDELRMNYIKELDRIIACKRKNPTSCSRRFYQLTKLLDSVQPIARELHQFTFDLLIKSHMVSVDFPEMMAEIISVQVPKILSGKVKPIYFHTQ
# Experiment: Displacement of [17-alpha-methyl-3H]-mibolerone from human androgen receptor expressed in HEK293 derived FreeStyle293F cells after 3 hrs
# Assay type: cell-based
row,IC50,SMILES
1,300 nM,Cc1c(CO)c(-c2ccc([N+](=O)[O-])cc2)c(C)n1Cc1ccccc1
2,22 nM,CCOC(=O)c1c(C)[nH]c(C)c1-c1ccc([N+](=O)[O-])cc1
3,47 nM,CCOC(=O)c1c(-c2ccc([N+](=O)[O-])cc2)c(C)n(C)c1C
4,310 nM,CCOC(=O)c1c(-c2ccc([N+](=O)[O-])cc2)c(C)n(CC2CCCCC2)c1C
5,78 nM,Cc1c(C#N)c(-c2ccc(C#N)cc2)cn1Cc1cnc(Cl)c(CO)c1
6,150 nM,CCOC(=O)c1c(-c2ccc([N+](=O)[O-])cc2)c(C)n(CCc2ccccc2)c1C
7,130 nM,COC(=O)c1c(-c2ccccc2)c(C)n(Cc2ccccc2)c1C
8,490 nM,Cc1c(-c2ccc(C#N)cc2)c(C#N)cn1Cc1cnc(Cl)c(CO)c1

row,SMILES,IC50
1,CCOC(=O)c1c(-c2ccc([N+](=O)[O-])cc2)c(C)n(S(=O)(=O)c2ccccc2)c1C,130 nM
2,Cc1c(C(=O)O)c(-c2ccc([N+](=O)[O-])cc2)c(C)n1Cc1ccccc1,620 nM
3,COC(=O)c1c(-c2ccc(C#N)c(C(F)(F)F)c2)c(C)n(Cc2ccccc2)c1C,3.9 nM

# Biological target: T2, Androgen receptor (Homo sapiens, UniProt P10275, T878A)
# T2 sequence (P10275 whole entry T878A): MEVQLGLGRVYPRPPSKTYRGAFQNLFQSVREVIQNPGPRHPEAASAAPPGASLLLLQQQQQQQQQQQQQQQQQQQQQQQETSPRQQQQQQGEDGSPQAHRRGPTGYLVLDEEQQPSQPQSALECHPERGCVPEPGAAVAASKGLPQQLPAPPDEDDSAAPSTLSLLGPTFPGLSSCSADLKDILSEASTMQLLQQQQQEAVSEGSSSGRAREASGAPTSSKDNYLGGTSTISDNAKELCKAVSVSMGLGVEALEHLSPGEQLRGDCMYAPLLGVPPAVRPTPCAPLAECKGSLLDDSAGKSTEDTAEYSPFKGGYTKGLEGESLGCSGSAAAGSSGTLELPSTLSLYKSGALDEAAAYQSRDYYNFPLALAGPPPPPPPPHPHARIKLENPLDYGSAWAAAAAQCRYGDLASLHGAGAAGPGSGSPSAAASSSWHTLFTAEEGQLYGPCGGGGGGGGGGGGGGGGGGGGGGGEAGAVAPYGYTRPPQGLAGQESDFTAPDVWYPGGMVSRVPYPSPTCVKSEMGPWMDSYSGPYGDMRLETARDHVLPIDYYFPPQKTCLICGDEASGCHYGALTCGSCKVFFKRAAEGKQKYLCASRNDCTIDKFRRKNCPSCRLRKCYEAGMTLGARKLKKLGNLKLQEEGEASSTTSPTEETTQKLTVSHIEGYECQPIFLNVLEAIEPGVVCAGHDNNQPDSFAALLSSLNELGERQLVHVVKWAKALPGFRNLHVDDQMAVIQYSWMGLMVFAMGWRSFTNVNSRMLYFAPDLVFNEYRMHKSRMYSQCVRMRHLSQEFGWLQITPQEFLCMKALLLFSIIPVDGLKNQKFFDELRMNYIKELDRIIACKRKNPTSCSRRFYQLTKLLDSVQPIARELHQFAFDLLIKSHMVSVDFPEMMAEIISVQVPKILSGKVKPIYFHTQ
# Experiment: Displacement of [17-alpha-methyl-3H]-mibolerone from human androgen receptor T877A mutant expressed in HEK293 derived FreeStyle293F cells after 3 hrs
# Assay type: cell-based
row,IC50,SMILES
1,92 nM,Cc1c(CO)c(-c2ccc([N+](=O)[O-])cc2)c(C)n1Cc1ccccc1
2,34 nM,CCOC(=O)c1c(C)[nH]c(C)c1-c1ccc([N+](=O)[O-])cc1
3,30 nM,CCOC(=O)c1c(-c2ccc([N+](=O)[O-])cc2)c(C)n(C)c1C
4,350 nM,CCOC(=O)c1c(-c2ccc([N+](=O)[O-])cc2)c(C)n(CC2CCCCC2)c1C
5,160 nM,Cc1c(C#N)c(-c2ccc(C#N)cc2)cn1Cc1cnc(Cl)c(CO)c1
6,52 nM,CCOC(=O)c1c(-c2ccc([N+](=O)[O-])cc2)c(C)n(CCc2ccccc2)c1C
7,65 nM,COC(=O)c1c(-c2ccccc2)c(C)n(Cc2ccccc2)c1C
8,1100 nM,Cc1c(-c2ccc(C#N)cc2)c(C#N)cn1Cc1cnc(Cl)c(CO)c1

row,SMILES,IC50
1,CCOC(=O)c1c(-c2ccc([N+](=O)[O-])cc2)c(C)n(S(=O)(=O)c2ccccc2)c1C,62 nM
2,Cc1c(C(=O)O)c(-c2ccc([N+](=O)[O-])cc2)c(C)n1Cc1ccccc1,190 nM
3,COC(=O)c1c(-c2ccc(C#N)c(C(F)(F)F)c2)c(C)n(Cc2ccccc2)c1C,4.7 nM

# Biological target: T1, Androgen receptor
# Experiment: Antagonist activity at human androgen receptor expressed in COS7 cells assessed as inhibition of DHT-induced luciferase activity after 24 hrs by reporter gene assay
# Assay type: functional, cell-based, COS-7
row,IC50,SMILES
1,3800 nM,Cc1c(CO)c(-c2ccc([N+](=O)[O-])cc2)c(C)n1Cc1ccccc1
2,240 nM,CCOC(=O)c1c(C)[nH]c(C)c1-c1ccc([N+](=O)[O-])cc1
3,500 nM,CCOC(=O)c1c(-c2ccc([N+](=O)[O-])cc2)c(C)n(C)c1C
4,3800 nM,CCOC(=O)c1c(-c2ccc([N+](=O)[O-])cc2)c(C)n(CC2CCCCC2)c1C
5,170 nM,Cc1c(C#N)c(-c2ccc(C#N)cc2)cn1Cc1cnc(Cl)c(CO)c1
6,4100 nM,CCOC(=O)c1c(-c2ccc([N+](=O)[O-])cc2)c(C)n(CCc2ccccc2)c1C
7,2600 nM,COC(=O)c1c(-c2ccccc2)c(C)n(Cc2ccccc2)c1C
8,320 nM,Cc1c(-c2ccc(C#N)cc2)c(C#N)cn1Cc1cnc(Cl)c(CO)c1

row,SMILES,IC50
1,CCOC(=O)c1c(-c2ccc([N+](=O)[O-])cc2)c(C)n(S(=O)(=O)c2ccccc2)c1C,4700 nM
2,Cc1c(C(=O)O)c(-c2ccc([N+](=O)[O-])cc2)c(C)n1Cc1ccccc1,8700 nM
3,COC(=O)c1c(-c2ccc(C#N)c(C(F)(F)F)c2)c(C)n(Cc2ccccc2)c1C,320 nM

# Biological target: T2, Androgen receptor
# Experiment: Agonist activity at human androgen receptor T877A mutant expressed in COS7 cells assessed as luciferase activity after 24 hrs by reporter gene assay
# Assay type: functional, cell-based, COS-7
row,EC50,SMILES
1,> 10000 nM,Cc1c(CO)c(-c2ccc([N+](=O)[O-])cc2)c(C)n1Cc1ccccc1
2,> 10000 nM,CCOC(=O)c1c(C)[nH]c(C)c1-c1ccc([N+](=O)[O-])cc1
3,> 10000 nM,CCOC(=O)c1c(-c2ccc([N+](=O)[O-])cc2)c(C)n(C)c1C
4,> 10000 nM,CCOC(=O)c1c(-c2ccc([N+](=O)[O-])cc2)c(C)n(CC2CCCCC2)c1C
5,> 10000 nM,Cc1c(C#N)c(-c2ccc(C#N)cc2)cn1Cc1cnc(Cl)c(CO)c1
6,> 10000 nM,CCOC(=O)c1c(-c2ccc([N+](=O)[O-])cc2)c(C)n(CCc2ccccc2)c1C
7,> 10000 nM,COC(=O)c1c(-c2ccccc2)c(C)n(Cc2ccccc2)c1C
8,> 10000 nM,Cc1c(-c2ccc(C#N)cc2)c(C#N)cn1Cc1cnc(Cl)c(CO)c1

row,SMILES,EC50
1,CCOC(=O)c1c(-c2ccc([N+](=O)[O-])cc2)c(C)n(S(=O)(=O)c2ccccc2)c1C,> 10000 nM
2,Cc1c(C(=O)O)c(-c2ccc([N+](=O)[O-])cc2)c(C)n1Cc1ccccc1,> 10000 nM
3,COC(=O)c1c(-c2ccc(C#N)c(C(F)(F)F)c2)c(C)n(Cc2ccccc2)c1C,5400 nM

# Biological target: T3, Androgen receptor (Homo sapiens, UniProt P10275, W742C)
# T3 sequence (P10275 whole entry W742C): as the sequence (P10275 whole entry T878A) above, with W742C, A878T counted along it
# Experiment: Antagonist activity at human androgen receptor W741C mutant expressed in COS7 cells assessed as inhibition of DHT-induced luciferase activity after 24 hrs by reporter gene assay
# Assay type: functional, cell-based, COS-7
row,IC50,SMILES
1,> 10000 nM,Cc1c(CO)c(-c2ccc([N+](=O)[O-])cc2)c(C)n1Cc1ccccc1
2,4200 nM,CCOC(=O)c1c(C)[nH]c(C)c1-c1ccc([N+](=O)[O-])cc1
3,6200 nM,CCOC(=O)c1c(-c2ccc([N+](=O)[O-])cc2)c(C)n(C)c1C
4,7200 nM,CCOC(=O)c1c(-c2ccc([N+](=O)[O-])cc2)c(C)n(CC2CCCCC2)c1C
5,760 nM,Cc1c(C#N)c(-c2ccc(C#N)cc2)cn1Cc1cnc(Cl)c(CO)c1
6,> 10000 nM,CCOC(=O)c1c(-c2ccc([N+](=O)[O-])cc2)c(C)n(CCc2ccccc2)c1C
7,3700 nM,COC(=O)c1c(-c2ccccc2)c(C)n(Cc2ccccc2)c1C
8,1400 nM,Cc1c(-c2ccc(C#N)cc2)c(C#N)cn1Cc1cnc(Cl)c(CO)c1

row,SMILES,IC50
1,CCOC(=O)c1c(-c2ccc([N+](=O)[O-])cc2)c(C)n(S(=O)(=O)c2ccccc2)c1C,> 10000 nM
2,Cc1c(C(=O)O)c(-c2ccc([N+](=O)[O-])cc2)c(C)n1Cc1ccccc1,> 10000 nM
3,COC(=O)c1c(-c2ccc(C#N)c(C(F)(F)F)c2)c(C)n(Cc2ccccc2)c1C,3300 nM

# Biological target: T1, Androgen receptor
# Experiment: Agonist activity at human androgen receptor expressed in COS7 cells assessed as luciferase activity after 24 hrs by reporter gene assay
# Assay type: functional, cell-based, COS-7
row,EC50,SMILES
1,> 10000 nM,Cc1c(CO)c(-c2ccc([N+](=O)[O-])cc2)c(C)n1Cc1ccccc1
2,> 10000 nM,CCOC(=O)c1c(C)[nH]c(C)c1-c1ccc([N+](=O)[O-])cc1
3,> 10000 nM,CCOC(=O)c1c(-c2ccc([N+](=O)[O-])cc2)c(C)n(C)c1C
4,> 10000 nM,CCOC(=O)c1c(-c2ccc([N+](=O)[O-])cc2)c(C)n(CC2CCCCC2)c1C
5,> 10000 nM,Cc1c(C#N)c(-c2ccc(C#N)cc2)cn1Cc1cnc(Cl)c(CO)c1
6,> 10000 nM,CCOC(=O)c1c(-c2ccc([N+](=O)[O-])cc2)c(C)n(CCc2ccccc2)c1C
7,> 10000 nM,COC(=O)c1c(-c2ccccc2)c(C)n(Cc2ccccc2)c1C
8,> 10000 nM,Cc1c(-c2ccc(C#N)cc2)c(C#N)cn1Cc1cnc(Cl)c(CO)c1

row,SMILES,EC50
1,CCOC(=O)c1c(-c2ccc([N+](=O)[O-])cc2)c(C)n(S(=O)(=O)c2ccccc2)c1C,> 10000 nM
2,Cc1c(C(=O)O)c(-c2ccc([N+](=O)[O-])cc2)c(C)n1Cc1ccccc1,> 10000 nM
3,COC(=O)c1c(-c2ccc(C#N)c(C(F)(F)F)c2)c(C)n(Cc2ccccc2)c1C,> 10000 nM

# Biological target: T3, Androgen receptor
# Experiment: Agonist activity at human androgen receptor W741C mutant expressed in COS7 cells assessed as luciferase activity after 24 hrs by reporter gene assay
# Assay type: functional, cell-based, COS-7
row,EC50,SMILES
1,> 10000 nM,Cc1c(CO)c(-c2ccc([N+](=O)[O-])cc2)c(C)n1Cc1ccccc1
2,> 10000 nM,CCOC(=O)c1c(C)[nH]c(C)c1-c1ccc([N+](=O)[O-])cc1
3,> 10000 nM,CCOC(=O)c1c(-c2ccc([N+](=O)[O-])cc2)c(C)n(C)c1C
4,> 10000 nM,CCOC(=O)c1c(-c2ccc([N+](=O)[O-])cc2)c(C)n(CC2CCCCC2)c1C
5,> 10000 nM,Cc1c(C#N)c(-c2ccc(C#N)cc2)cn1Cc1cnc(Cl)c(CO)c1
6,> 10000 nM,CCOC(=O)c1c(-c2ccc([N+](=O)[O-])cc2)c(C)n(CCc2ccccc2)c1C
7,> 10000 nM,COC(=O)c1c(-c2ccccc2)c(C)n(Cc2ccccc2)c1C
8,> 10000 nM,Cc1c(-c2ccc(C#N)cc2)c(C#N)cn1Cc1cnc(Cl)c(CO)c1

row,SMILES,EC50
1,CCOC(=O)c1c(-c2ccc([N+](=O)[O-])cc2)c(C)n(S(=O)(=O)c2ccccc2)c1C,> 10000 nM
2,Cc1c(C(=O)O)c(-c2ccc([N+](=O)[O-])cc2)c(C)n1Cc1ccccc1,> 10000 nM
3,COC(=O)c1c(-c2ccc(C#N)c(C(F)(F)F)c2)c(C)n(Cc2ccccc2)c1C,> 10000 nM

# Biological target: T2, Androgen receptor
# Experiment: Antagonist activity at human androgen receptor T877A mutant expressed in COS7 cells assessed as inhibition of DHT-induced luciferase activity after 24 hrs by reporter gene assay
# Assay type: functional, cell-based, COS-7
row,IC50,SMILES
1,660 nM,Cc1c(CO)c(-c2ccc([N+](=O)[O-])cc2)c(C)n1Cc1ccccc1
2,340 nM,CCOC(=O)c1c(C)[nH]c(C)c1-c1ccc([N+](=O)[O-])cc1
3,210 nM,CCOC(=O)c1c(-c2ccc([N+](=O)[O-])cc2)c(C)n(C)c1C
4,3700 nM,CCOC(=O)c1c(-c2ccc([N+](=O)[O-])cc2)c(C)n(CC2CCCCC2)c1C
5,910 nM,Cc1c(C#N)c(-c2ccc(C#N)cc2)cn1Cc1cnc(Cl)c(CO)c1
6,970 nM,CCOC(=O)c1c(-c2ccc([N+](=O)[O-])cc2)c(C)n(CCc2ccccc2)c1C
7,1300 nM,COC(=O)c1c(-c2ccccc2)c(C)n(Cc2ccccc2)c1C
8,810 nM,Cc1c(-c2ccc(C#N)cc2)c(C#N)cn1Cc1cnc(Cl)c(CO)c1

row,SMILES,IC50
1,CCOC(=O)c1c(-c2ccc([N+](=O)[O-])cc2)c(C)n(S(=O)(=O)c2ccccc2)c1C,4700 nM
2,Cc1c(C(=O)O)c(-c2ccc([N+](=O)[O-])cc2)c(C)n1Cc1ccccc1,6500 nM
3,COC(=O)c1c(-c2ccc(C#N)c(C(F)(F)F)c2)c(C)n(Cc2ccccc2)c1C,690 nM
